The structures appear in SMILES notation.

Results on 3 compounds are retold here after patent US20060058286A1, “Methods of treating HIV infection” (priority 2004, published 2006).

Experiment [1] relates to HIV-1 NL4-3. The experiment is described as follows: microbe, parasite or virus in culture. The settings on record: Human immunodeficiency virus 1, NL43, MT2, 120 h. Here is the method: (§1) Virus and cell lines. The T-cell line, MT-2 was obtained through the AIDS Research and Reference Reagent Program, NIAID and was contributed by Dr. D. Richman. The cell line was cultured in RPMI 1640 medium supplemented with 10% fetal bovine serum, 2 mM L-glutamine and sub-cultured twice a week. The NL4-3 strain of HIV-1 was obtained from the AIDS Research and Reference Reagent Program. Both virus stocks were amplified and titered in MT-2 cells using a virus infectivity assay.
(§2) Drug Susceptibility and Cytotoxicity Assays. For drug susceptibility assays, MT-2 cells were infected with HIV-1 NL4-3 at an MOI of 0.001, and seeded into 96-well microtiter plates (2.5×10^5 cells/ml) containing serial dilutions of test compounds. […] Each drug ratio consisted of an array of 3-fold serial dilutions, and was performed in quadruplicate. The plates were incubated at 37° C./5% CO2. The MT-2 cells infected with HIV-1 NL4-3 were incubated for 5 days. On day-five post-infection, 20 μl from each well was harvested and quantitated by a reverse transcriptase (RT) assay or an MTS assay. Cytotoxicity assays were performed using uninfected cells, exposed to the same drug combinations, and incubated for five days. Cell viability was determined by an XTT assay. The CC50 values were calculated by using the exponential form of the median effect equation as mentioned below for calculation of EC50.
(§3) In this equation, Fa stands for “fraction affected,” and represents the fraction of the viral load that has been inactivated.
In carrying out the combination experiments below, the EC50 for Compound 1 and each comparator compound was determined during the course of each study, and used in the subsequent data analysis.

Experiment [2] concerns HIV-1 NL4-3. The experiment is described as follows: Two-drug combination study with Compound 1 (combination indices). The conditions noted are these: for Combination Indices at 50% HIV Inhibition (Confidence Interval) / Combination Indices at 75% HIV Inhibition (Confidence Interval) / Combination Indices at 90% HIV Inhibition (Confidence Interval): 95% CI in parentheses; for Overall Result: overall antiviral effect of the two-drug combination with Compound 1, all ratios and effective levels. Format: cell-based. How it is done: as §1, §2
Analysis of Drug Combination Effects. For determination of CI values, drugs were diluted in a fixed ratio and multiple ratios were analyzed. The drug serial dilutions spanned a range of concentrations near the EC50 value of each compound, so that equivalent antiviral activities could be compared. Concentration-response curves were estimated for each individual drug and every combination using the median-effect equation. The equation was fit using a nonlinear regression routine (Proc Nlin) in PC SAS version 8.01 (SAS Institute Inc., SAS Version 8.01, Cary, N.C.: SAS Institute Inc., 1990).
as §3
To assess antiviral effects of different drug combination treatments, combination indices (CIs) were calculated according to Chou and Rideout. The combination index was computed as CI=[D]1/[Dm]1+[D]2/[Dm]2
In this equation [Dm]1 and [Dm]2 are the concentrations of drugs that would individually produce a specific level of effect, while [D]1 and [D]2 are the concentrations of drugs in combination that would produce the same level of effect.
Theoretically, additivity is implied if the CI is equal to one, synergy if the CI is less than one, and antagonism if the CI is greater than one. […] At best, we can construct a range that contains the likely values for the CI, given the noise in the data. In this report, these ranges are reported in parentheses next to each point estimate of the CI. […] If the range fell entirely above 1.0, we would infer antagonistic behavior. If the range were to include 1.0, we would infer additivity.

Where [3] appears, read: combination with Compound 1, EC50 ratio 1:1 (Compound 1:comparator).
[4] abbreviates: combination with Compound 1, EC50 ratio 1:2.5 (Compound 1:comparator).
The mark [5] stands for this setting: combination with Compound 1, EC50 ratio 2.5:1 (Compound 1:comparator).

Broadly, the EC50 is the concentration that produces a half-maximal response. `Cc1c(O)cccc1C(=O)N[C@@H](CSc1ccccc1)[C@H](O)CN1C[C@H]2CCCC[C@H]2C[C@H]1C(=O)NC(C)(C)C` [Nelfinavir, nelfinavir]: in experiment [1], the EC50 worked out at 8 nM. For the same compound, the “Combination Indices at 50% HIV Inhibition (Confidence Interval)” value in experiment [2] (setting [3]) is given as 0.55 (0.45, 0.65); in experiment [2] (setting [4]), 0.41 (0.34, 0.49); in experiment [2] (setting [5]) it was 0.82 (0.65, 0.99). Moreover, the “Combination Indices at 75% HIV Inhibition (Confidence Interval)” value in experiment [2] (setting [3]) is 0.57 (0.42, 0.71); in experiment [2] (setting [4]) it was 0.50 (0.38, 0.63); in experiment [2] (setting [5]), 0.84 (0.60, 1.08). Further, the “Combination Indices at 90% HIV Inhibition (Confidence Interval)” value in experiment [2] (setting [3]) is 0.59 (0.35, 0.83); in experiment [2] (setting [4]), 0.62 (0.36, 0.87); in experiment [2] (setting [5]) it was 0.87 (0.47, 1.27). Moreover, the “combination effect at the 5:1 and 2:1 molar ratios” value in experiment [2] (combination with Compound 1, all effective levels) was “synergy”. In experiment [2] (combination with Compound 1, only at the 75% and 90% effective levels), the “combination effect at the 12.5:1 molar ratio” value is reported as “bias toward additivity”. For the same compound, the “Overall Result” value in experiment [2] was “Moderately”; in experiment [2] (listed as nelfinavir), “moderately synergistic”.
For the compound `Cc1cn([C@H]2C=C[C@@H](CO)O2)c(=O)[nH]c1=O` [Stavudine, stavudine], the EC50 in experiment [1] came out at 55 nM. In experiment [2] (combination with Compound 1), the “combination effect at the 50% effective level” value is on record as “additivity”; the “combination effect at the 75% and 90% effective levels” value is given as “synergy”. In addition, in experiment [2] (setting [3]), the “Combination Indices at 50% HIV Inhibition (Confidence Interval)” value is listed as 0.63 (0.42, 0.85); the “Combination Indices at 75% HIV Inhibition (Confidence Interval)” value is 0.51 (0.29, 0.74); the “Combination Indices at 90% HIV Inhibition (Confidence Interval)” value is listed as 0.43 (0.10, 0.75). Also, in experiment [2] (setting [4]), the “Combination Indices at 50% HIV Inhibition (Confidence Interval)” value was 1.32 (0.94, 1.69); the “Combination Indices at 75% HIV Inhibition (Confidence Interval)” value was 0.68 (0.41, 0.94); the “Combination Indices at 90% HIV Inhibition (Confidence Interval)” value is listed as 0.36 (0.12, 0.59). For the same compound, in experiment [2] (setting [5]), the “Combination Indices at 50% HIV Inhibition (Confidence Interval)” value was 1.20 (0.88, 1.51); the “Combination Indices at 75% HIV Inhibition (Confidence Interval)” value is on record as 0.71 (0.45, 0.96); the “Combination Indices at 90% HIV Inhibition (Confidence Interval)” value was 0.43 (0.17, 0.68). The “Overall Result” value in experiment [2] is recorded as “Additive-”. In addition, the “Overall Result” value in experiment [2] (listed as stavudine) is recorded as “additive-synergistic”.
As for `COC(=O)N[C@H](C(=O)N[C@@H](Cc1ccccc1)[C@@H](O)CN(Cc1ccc(-c2ccccn2)cc1)NC(=O)[C@@H](NC(=O)OC)C(C)(C)C)C(C)(C)C` [Atazanavir, atazanavir], the EC50 in experiment [1] amounted to 9 nM. The “Combination Indices at 50% HIV Inhibition (Confidence Interval)” value is 0.64 (0.54, 0.73) in experiment [2] (setting [3]); 0.91 (0.81, 1.20) in experiment [2] (setting [4]); 1.01 (0.80, 1.19) in experiment [2] (setting [5]). The “Combination Indices at 75% HIV Inhibition (Confidence Interval)” value in experiment [2] (setting [3]) was 0.60 (0.49, 0.72); in experiment [2] (setting [4]) it was 0.90 (0.70 1.10); in experiment [2] (setting [5]) it was 1.02 (0.77, 1.28). Further, the “Combination Indices at 90% HIV Inhibition (Confidence Interval)” value is given as 0.59 (0.43, 0.75) in experiment [2] (setting [3]); 0.90 (0.57, 1.23) in experiment [2] (setting [4]); 1.09 (0.67, 1.50) in experiment [2] (setting [5]). Also, the “Overall Result” value in experiment [2] is given as “Additive-”; in experiment [2] (listed as atazanavir), “additive to synergistic”.
